Measurements as given in patent publication US9878999B2, “Proteasome chymotrypsin-like inhibition using PI-1833 analogs” (H. Lee Moffitt Cancer Center and Research Institute, Inc., priority 2011, dated 2018).
Where “and” joins values, the source holds several entries; their conditions need not be identical. Equal values may be shown once. Read-outs that look alike come from different tables or passages of the source.

Molecular target: CT-L activity of purified 20S proteasome (Homo sapiens, UniProt P20618+P28074)
Experiment: in vitro CT-L activity of purified 20S proteasome
Type: biochemical
Conditions: for fold loss of CT-L activity: compared to 1; for Chymotrypsin-like activity, % @ 10 μM: Table 2, @ 10 μM; for fold difference of CT-L potency between S- and R-enantiomer: 16c vs 16b, 16e vs 16f
[1] = Table 1, read-out: IC50 (μM) Chymotrypsin-like activity
[2] = read-out: % inhibition of CT-L @ 10 μM, @ 10 μM
[3] = Table 2, read-out: IC50 (μM) Chymotrypsin-like activity
[4] = Table 3, read-out: IC50 (μM) CT-L
[5] = Table 10, read-out: IC50 (μM) CT-L
[6] = Table 5, read-out: IC50 (μM) Chymotrypsin-like

An IC50 [1] of 0.51 ± 0.16 µM and an IC50 (read-out: IC50, in vitro CT-L) of 0.3 to 0.5 µM were found for `CC(C)N(Cc1nc(-c2ccccc2)no1)C(=O)COc1ccc(Cl)cc1` [11h, 2-(4-Chlorophenoxy)-N-isopropyl-N-((3-phenyl-1,2,4-oxadiazol-5-yl)methyl)acetamide] in this work.

An IC50 [1] of 0.45 ± 0.15 µM and an IC50 (read-out: IC50, in vitro CT-L) of about 1 µM were found for `Cc1ccc(OCC(=O)N(Cc2nc(-c3ccc(Cl)cc3)no2)C(C)C)cc1` [11i, N-((3-(4-chlorophenyl)-1,2,4-oxadiazol-5-yl)methyl)-N-isopropyl-2-(p-tolyloxy)acetamide] in this work.

With `CC(C)N(Cc1nc(-c2ccccc2)no1)C(=O)COc1ccccc1` [11j, N-Isopropyl-2-phenoxy-N-((3-phenyl-1,2,4-oxadiazol-5-yl)methyl)acetamide] the “fold loss of CT-L activity” value was 10 fold and the IC50 (read-out: IC50, in vitro CT-L) was 6.22 µM.

`Cc1ccc(-c2noc(CN(C(=O)COc3ccccc3)C(C)C)n2)cc1` [11k, N-Isopropyl-2-phenoxy-N-((3-p-tolyl-1,2,4-oxadiazol-5-yl)methyl)acetamide] was tested, and the IC50 [1] was 8.47 ± 0.59 µM, the “fold loss of CT-L activity” value was 13 fold and the IC50 (read-out: IC50, in vitro CT-L) was 8.4 µM.

In the case of `CC(C)N(Cc1nc(-c2ccc(C(F)(F)F)cc2)no1)C(=O)COc1ccccc1` [11l, N-Isopropyl-2-phenoxy-N-((3-(4-(trifluoromethyl)phenyl)-1,2,4-oxadiazol-5-yl)methyl)acetamide], the IC50 [1] is reported as 15.1 ± 6.94 µM, the “fold loss of CT-L activity” value is reported as 25 fold and the IC50 (read-out: IC50, in vitro CT-L) is reported as 15 µM.

An IC50 [1] of 0.31 ± 0.08 µM and an IC50 (read-out: IC50, in vitro CT-L) of 0.3 to 0.5 µM were found for `Cc1ccc(OCC(=O)N(Cc2nc(-c3ccccc3)no2)C(C)C)cc1` [11m, N-isopropyl-N-((3-phenyl-1,2,4-oxadiazol-5-yl)methyl)-2-(p-tolyloxy)acetamide] in this work.

An IC50 [1] of 0.97 ± 0.15 µM and an IC50 (read-out: IC50, in vitro CT-L) of about 1 µM were found for `Cc1ccc(OCC(=O)N(Cc2nc(-c3ccc(C(F)(F)F)cc3)no2)C(C)C)cc1` [11n, N-Isopropyl-2-(p-tolyloxy)-N-((3-(4-(trifluoromethyl)phenyl)-1,2,4-oxadiazol-5-yl)methyl)acetamide] in this work.

In the case of `Cc1cccc(OCC(=O)N(Cc2nc(-c3ccccc3)no2)C(C)C)c1` [11o, N-isopropyl-N-((3-phenyl-1,2,4-oxadiazol-5-yl)methyl)-2-(m-tolyloxy)acetamide], the “CT-L inhibitory activity, in words” value is reported as “loss of in vitro activity” and the IC50 [1] is reported as over 10 µM.

With `Cc1ccccc1OCC(=O)N(Cc1nc(-c2ccccc2)no1)C(C)C` [11p, N-Isopropyl-N-((3-phenyl-1,2,4-oxadiazol-5-yl)methyl)-2-(o-tolyloxy)acetamide] the “CT-L inhibitory activity, in words” value was “loss of in vitro activity” and the IC50 [1] was over 10 µM.

An IC50 [1] of over 10 µM and an inhibition at 10 µM [2] of under 70% were found for `CC(C)N(Cc1nc(-c2ccccc2)no1)C(=O)COc1ccc(-c2ccccc2)cc1` [11q, 2-(Biphenyl-4-yloxy)-N-isopropyl-N-((3-phenyl-1,2,4-oxadiazol-5-yl)methyl)acetamide] in this work.

An IC50 [1] of over 10 µM and an inhibition at 10 µM [2] of under 70% were found for `CC(C)N(Cc1nc(-c2ccccc2)no1)C(=O)COc1ccc2cc(Br)ccc2c1` [11r, 2-(6-Bromonaphthalen-2-yloxy)-N-isopropyl-N-((3-phenyl-1,2,4-oxadiazol-5-yl)methyl)acetamide] in this work.

With `CC(C)N(Cc1nc(-c2ccccc2)no1)C(=O)COc1ccc(F)cc1` [11s, 2-(4-Fluorophenoxy)-N-isopropyl-N-((3-phenyl-1,2,4-oxadiazol-5-yl)methyl)acetamide] the “CT-L inhibitory activity, in words” value was “poor CT-L inhibitory activity”, the IC50 [1] was 8.73 ± 3.05 µM and the “fold loss of CT-L inhibitory activity” value (compared to 11b) was 20 fold.

An IC50 [1] of 0.98 ± 0.5 µM and an IC50 (read-out: IC50, in vitro CT-L) of about 1 µM were found for `CC(C)N(Cc1nc(-c2cccnc2)no1)C(=O)COc1ccc(O)cc1` [11u] in this work.

An IC50 [1] of 10.1 ± 4.52 µM and an IC50 (read-out: IC50, in vitro CT-L) of 10 µM were found for `CC(C)N(Cc1nc(-c2ccccc2)no1)C(=O)COc1ccc(O)cc1` [11v, 2-(4-hydroxyphenoxy)-N-isopropyl-N-((3-phenyl-1,2,4-oxadiazol-5-yl)methyl)acetamide] in this work.

An IC50 [1] of 3.75 ± 1.47 µM and an IC50 (read-out: IC50, in vitro CT-L) of 3.74 ± 1.47 µM were found for `Cc1ccc(OCC(=O)N(Cc2nc(-c3ccccn3)no2)C(C)C)cc1` [11w, N-Isopropyl-N-((3-(pyridin-2-yl)-1,2,4-oxadizaol-5-yl)methyl)-2-(p-tolyloxy)acetamide] in this work.

For `Cc1ccc(OCC(=O)N(Cc2nc(-c3cccnc3)no2)C(C)C)cc1` [11x, N-isopropyl-N-((3-(pyridin-3-yl)-1,2,4-oxadiazol-5-yl)methyl)-2-(p-tolyloxy)acetamide], the “fold improved CT-L activity” value (compared to the hit 1 (PI-1833)) was 2.5 fold and the IC50 (read-out: IC50, in vitro CT-L) was 0.239 ± 0.09 µM.

An IC50 (read-out: IC50, in vitro CT-L) of 0.37 ± 0.04 µM was found for `Cc1ccc(OCC(=O)N(Cc2nc(-c3ccncc3)no2)C(C)C)cc1` [11y, N-Isopropyl-N-((3-(pyridin-4-yl)-1,2,4-oxadizaol-5-yl)methyl)-2-(p-tolyloxy)acetamide] in this work.

In the case of `Cc1ccc(OCC(=O)N(Cc2nc(-c3ccccc3)no2)C(C)C)cn1` [11z, N-Isopropyl-2-(60methylpyridin-3-yloxy)-N-((3-phenyl-1,2,4-oxadiazol-5-yl)methyl)acetamide], the “CT-L inhibitory activity, in words” value is reported as “failed to retain the activity” and the IC50 [1] is reported as 4 ± 0.89 µM.

`Cc1ccc(OCC(=O)N(Cc2nc(-c3ccc(C)cc3)no2)CC(C)C)cc1` [12a, N-Isobutyl-N-((3-p-tolyl-1,2,4-oxadiazol-5-yl)methyl)-2-(p-tolyloxy)acetamide] was tested, and the “fold loss of CT-L activity” value was 3 fold and the IC50 (read-out: IC50, in vitro CT-L) was 2.37 µM.

With `CCN(Cc1nc(-c2ccc(C)cc2)no1)C(=O)COc1ccc(C)cc1` [12b, N-Ethyl-N-((3-p-tolyl-1,2,4-oxadiazol-5-yl)methyl)-2-(p-tolyloxy)acetamide] the IC50 [3] was 8.98 ± 5.21 µM, the “fold loss of CT-L activity” value was 14 fold and the IC50 (read-out: IC50, in vitro CT-L) was 8.8 µM.

An IC50 [3] of 29.9 ± 3.9 µM was found for `Cc1ccc(OCC(=O)N(C)Cc2nc(-c3ccc(C)cc3)no2)cc1` [12c, N-Methyl-N-((3-p-tolyl-1,2,4-oxadiazol-5-yl)methyl)-2-(p-tolyloxy)acetamide] in this work.

With `Cc1ccc(OCC(=O)NCc2nc(-c3ccc(C)cc3)no2)cc1` [12d, N-((3-p-tolyl-1,2,4-oxadiazol-5-yl)methyl)-2-(p-tolyloxy)acetamide] the “Chymotrypsin-like activity, % @ 10 μM” value was −62% @10 μM.

`Cc1ccc(OCC(=O)N(Cc2nc(-c3ccc(C)cc3)no2)C(C)(C)C)cc1` [12e] was tested, and the “Chymotrypsin-like activity, % @ 10 μM” value was −108.42 ± 118.76%.

`Cc1ccc(OCC(=O)N(Cc2nc(-c3ccc(C)cc3)no2)C2CC2)cc1` [12f, N-Cyclopropyl-N-((3-p-tolyl-1,2,4-oxadiazol-5-yl)methyl)-2-(p-tolyloxy)acetamide] was tested, and the “Chymotrypsin-like activity, % @ 10 μM” value was −8.36 ± 19.03%.

An IC50 (read-out: IC50, in vitro CT-L) of 0.214 µM was found for `Cc1ccc(O[C@@H](C)C(=O)N(Cc2nc(-c3cccnc3)no2)C(C)C)cc1` [16b, (S)—N-Isopropyl-N-((3-(pyridine-3-yl)-1,2,4-oxadiazol-5-yl)methyl)-2-(p-tolyloxy)propanamide] in this work.

With `Cc1ccc(O[C@H](C)C(=O)N(Cc2nc(-c3cccnc3)no2)C(C)C)cc1` [16c, (R)—N-Isopropyl-N-((3-(pyridine-3-yl)-1,2,4-oxadiazol-5-yl)methyl)-2-(p-tolyloxy)propanamide] the “fold difference of CT-L potency between S- and R-enantiomer” value was 35 fold and the IC50 [4] was 7.52 ± 2.13 µM.

With `CCCc1ccc(O[C@@H](C)C(=O)N(Cc2nc(-c3cccnc3)no2)C(C)C)cc1` [16e, (S)—N-Isopropyl-2-(4-propylphenoxy)-N-((3-(pyridine-3-yl)-1,2,4-oxadiazol-5-yl)methyl)propanamide] the “fold difference of CT-L potency between S- and R-enantiomer” value was 40 fold and the IC50 [4] was 0.075 µM.

An IC50 (Table 4, read-out: IC50 (μM) Chymotrypsin-like activity) of 0.716 ± 0.27 µM was found for `Cc1ccc(OCC(=O)N(Cc2nc(-c3ccc(C)cc3)no2)C(C)C)cc1` [PI-1833 (23)] in this work.

An IC50 [5] of over 10 µM and an IC50 (read-out: IC50, in vitro CT-L) of over 10 µM were found for `Cc1ccc(CNC(=O)N(Cc2nc(-c3ccccc3)no2)C(C)C)cc1` [SO2-024, 1-Isopropyl-3-(4-methylbenzyl)-1-((3-phenyl-1,2,4-oxadiazol-5-yl)methyl)urea] in this work.

An IC50 [5] of 15.7 µM and an IC50 (read-out: IC50, in vitro CT-L) of 15 µM were found for `CC(C)N(Cc1nc(-c2ccccc2)no1)C(=O)CCc1ccc(C(F)(F)F)cc1` [SO2-027, N-Isopropyl-N-((3-phenyl-1,2,4-oxadiazol-5-yl)methyl)-3-(4-(trifluoromethyl)phenyl)propanamide] in this work.

An IC50 (read-out: IC50, in vitro CT-L) of 5.67 µM was found for `Cc1ccc(NCC(=O)N(Cc2nc(-c3ccccc3)no2)C(C)C)cc1` [SO2-090, N-Isopropyl-N-((3-phenyl-1,2,4-oxadiazol-5-yl)methyl)-2-(p-tolylamino)acetamide] in this work.

An inhibition at 10 µM [2] of 31% was found for `Cc1ccc(OCC(=O)N(CCc2nc(-c3ccccc3)no2)C(C)C)cc1` [SO2-091, N-Isopropyl-N-(2-(3-phenyl-1,2,4-oxadiazol-5-yl)ethyl)-2-(p-tolyloxy)acetamide] in this work.

An IC50 [5] of 0.379 ± 0.063 µM was found for `CC(C)N(Cc1nc(-c2cccnc2)no1)C(=O)c1cc2ccccc2o1` [SO3-029] in this work.

For `Cc1ccc(OCC(=O)N(Cc2nc(-c3ccc(C)cc3)no2)CC(C)C)cc1` [compound 36], the “CT-L inhibitory activity, in words” value was “loss of CT-L proteasome activity” and the IC50 (Table 7, 20S CT-L proteasome activity, read-out: IC50 (μM) CT-L) was 2.37 ± 0.4 µM.

For `CC(C)N(Cc1nc(-c2ccccc2)no1)C(=O)CCc1ccc(C(F)(F)F)cc1` [compound 41], the “CT-L inhibitory activity, in words” value was “activity was diminished”.

`Cc1ccc(CNC(=O)N(Cc2nc(-c3ccccc3)no2)C(C)C)cc1` [compound 43] was tested, and the “CT-L inhibitory activity, in words” value was “loss of CT-L activity”.

With `Cc1ccc(OCC(=O)N(Cc2nc(-c3ccc(C)cc3)no2)C(C)C)cc1` [drawing 108] the “Screening Results (% Inhibition @ 10 μM) Chymotrypsin-like” value (Table 5, @ 10 μM, 10 µM) was 74% and 67% and 71%, the inhibition at 10 µM (Table 5, @ 10 μM, read-out: Screening Results (% Inhibition @ 10 μM) Chymotrypsin-like) was 73% and the IC50 [6] was 0.65 ± 0.38 µM.

An IC50 [6] of 2.37 ± 0.4 µM was found for `Cc1ccc(OCC(=O)N(Cc2nc(-c3ccc(C)cc3)no2)CC(C)C)cc1` [drawing 111] in this work.

An IC50 [6] of 0.97 ± 0.15 µM was found for `Cc1ccc(OCC(=O)N(Cc2nc(-c3ccc(C(F)(F)F)cc3)no2)C(C)C)cc1` [drawing 112] in this work.

An IC50 [6] of 0.45 ± 0.15 µM was found for `Cc1ccc(OCC(=O)N(Cc2nc(-c3ccc(Cl)cc3)no2)C(C)C)cc1` [drawing 113] in this work.

`CC(C)N(Cc1nc(-c2ccc(Cl)cc2)no1)C(=O)COc1ccc(C(F)(F)F)cc1` [drawing 114] was tested, and the IC50 [6] was 0.58 µM and 0.857 µM.

An IC50 [6] of 2.53 ± 0.95 µM was found for `CC(C)N(Cc1nc(-c2ccc(C(F)(F)F)cc2)no1)C(=O)COc1ccc(C(F)(F)F)cc1` [drawing 115] in this work.

An IC50 [6] of 0.43 ± 0.12 µM was found for `CC(C)N(Cc1nc(-c2ccccc2)no1)C(=O)COc1ccc(C(F)(F)F)cc1` [drawing 116] in this work.
